Entries after “also recorded” stand apart in the source; their conditions may differ. Positions of bridges follow the written chain, without caps; N, C: chain ends. Non-standard residues stand in square brackets, D forms with d. Residues, ends and D or L forms follow the SMILES beside them.
What was measured:
[1] = system: female Sprague-Dawley rats; assay: GI transit (charcoal meal) after single oral SP-333 in opioid naïve rats; format: in vivo, rat
Protocol: FIGS. 7A-B is a series of graphs showing that oral treatment with SP-333 increases GI transit in rats. […] Panel A is a bar graph showing that SP-333 increases GI transit by 5.6%, 13%, and 23% at 0.05, 0.5, and 5 mg/kg, respectively in opioid naïve animals. Panel B is a distribution graph showing the data of each individual animal.
(§1) Effect of SP-333 on opioid-induced GI transit delay in rats: The ability of opioids to delay GI transit in rats was tested by either administering 0 (vehicle) 0.25, 1 and 2.5 mg/kg of morphine or 0 (vehicle), 0.25, 2.5 and 5 mg/kg of methadone (1.5 ml/kg dose volume) by IP injection. Water served as vehicle control. Ten minutes later, a 2 mL charcoal meal consisting of 10% activated charcoal (Sigma-Aldrich, St. Louis, Mo.) and 10% gum Arabic (Sigma-Aldrich, St. Louis, Mo.) in water was administered via oral gavage. Rats were euthanized 10 min after the charcoal meal via IP injection of 150 mg/kg Beuthanasia-D solution (sodium pentobarbital, 390 mg/mL). The small intestine was removed and the total length from the pyloric sphincter to the ileocecal junction was recorded, as well as the distance travelled by the leading edge of the charcoal. Intestinal transit was determined by calculating the ratio (expressed as a percentage) of the distance between the pyloric sphincter and the leading edge of the charcoal to the distance between the pyloric sphincter and the ileocecal junction.

[2] = system: female Sprague-Dawley rats; assay: Reversal of morphine-induced delayed GI transit by oral SP-333; format: in vivo, rat
Protocol: as §1
To evaluate the ability of SP-333 to reverse morphine induced delayed GI transit, animals were administered 2.5 mg/kg of morphine by IP injection followed immediately by oral gavage of 0 (vehicle), 0.5, 2.5, 5 and 50 mg/kg of SP-333 (1.5 ml/kg dose volume). Water served as vehicle control. Charcoal meal was administered ten minutes later and animals were euthanized ten minutes after the charcoal meal and intestinal transit was calculated as described above.

[3] = system: female Sprague-Dawley rats; assay: Reversal of methadone-induced delayed GI transit by oral SP-333; format: in vivo, rat
Protocol: as §1
To evaluate the ability of SP-333 to reverse methadone induced delayed GI transit, animals were administered 2.5 mg/kg of methadone by IP injection. Ten minutes later, an oral gavage of 0 (vehicle), 0.1, 0.5, 2.5, 5 and 50 mg/kg of SP-333 (1.5 ml/kg dose volume) was administered followed immediately by a 2 mL oral gavage of the charcoal meal. Ten minutes after the charcoal meal, animals were euthanized and intestinal transit was calculated as described above.

[4] = system: female Sprague-Dawley CD rats; assay: GI transit delay induced by repeated methadone administration; format: in vivo, rat; conditions: for GI transit after repeated methadone dosing (words): repeated daily IP methadone (5 then 2.5 mg/kg)
Protocol: The ability of SP-333 to alleviate GI transit delay induced by repeated methadone administration was also evaluated in the similar manner. Female Sprague-Dawley CD rats 7 to 8 weeks of age (n=7/group) received via IP injection 16 doses of methadone (once daily; 7 doses @ 5 mg/kg and 9 doses @ 2.5 mg/kg). Ten minutes following each methadone dose, each group received an oral gavage of vehicle, 2.5, and 5 mg/kg of SP-333. At the end of the dosing regimen, animals were fasted overnight and GI transit was evaluated as described above.

[5] = system: female Sprague-Dawley CD rats; assay: Methadone-induced constipation (fecal pellet output); format: in vivo, rat
Protocol: Effect of SP-333 on methadone-induced constipation in rats: To identify the methadone dose that induces constipation in rats, female Sprague-Dawley CD rats 7 to 8 weeks of age (n=6/group) were administered 0 (vehicle), 2.5, 5, and 7.5 mg/kg of methadone (1.5 ml/kg dose volume) by IP injection once a day for 5 days. Fecal pellets were collected at 4 h intervals during the light cycle and average number of pellets was recorded for each group during the course of the study following daily dose administrations of methadone.
To evaluate the ability of SP-333 to relieve methadone-induced constipation, female Sprague-Dawley CD rats 7 to 8 weeks of age (n=7/group) were administered 5 mg/kg of methadone (or vehicle) each day for 7 days via IP injection to induce constipation. Ten minutes following the IP dose each day, an oral gavage of 2.5, and 5 mg/kg of SP-333 or vehicle (buffer) was administered. Fecal pellets were collected at 4 h intervals during the light cycle and average number of pellets recorded for each group during the course of the study following daily administration of vehicle, methadone or combination of methadone and SP-333.

rat jejunum = assay: Short circuit current (Isc) in Ussing chamber across rat jejunum tissue; conditions: for inhibition of SP-333-stimulated Isc: inhibitor pretreatment 5 min, 1 μM SP-333
T84 cells = assay: Short circuit current (Isc) in Ussing chamber across T84 cells monolayer
[6] = system: female Sprague-Dawley rats; assay: Opioid-induced GI transit delay after single IP opioid dose (charcoal meal); format: in vivo, rat
Protocol: Animals: All study procedures were conducted under a study outline approved by the Institutional Animal Care and Use Committee of MB Research Labs (Spinnerstown, Pa.) or Lampire Biological Laboratories (Pipersville, Pa.). Seven to eight week old female Sprague-Dawley rats [Crl:CD(SD)], weighing between ˜180-210 grams, were obtained from Charles River Laboratories and allowed to acclimate for a week. Animals were maintained on a 12 hour light-dark cycle. For intestinal tissue collection and evaluation of GI transit, rats were fasted for at least 18 hours before the experiment, with free access to water.
as §1

[7] = 5 μM morphine apical 5 min, then 1 μM SP-333
[8] = 5 μM methadone apical 5 min, then 1 μM SP-333

CC(C)C[C@@H]1NC(=O)[C@H](CCC(=O)O)NC(=O)[C@@H](NC(=O)[C@H](CCC(=O)O)NC(=O)[C@H](CC(=O)O)NC(=O)[C@H](N)CC(N)=O)CSSC[C@@H]2NC(=O)[C@H](C)NC(=O)[C@H](C(C)C)NC(=O)[C@H](CC(N)=O)NC(=O)[C@H](C(C)C)NC(=O)[C@H](CSSC[C@@H](C(=O)N[C@H](CC(C)C)C(=O)O)NC(=O)CNC(=O)[C@H]([C@@H](C)O)NC2=O)NC1=O [SP-333, dAsn^1-Asp^2-Glu^3-Cys^4-Glu^5-Leu^6-Cys^7-Val^8-Asn^9-Val^10-Ala^11-Cys^12-Thr^13-Gly^14-Cys^15-dLeu^16] (H-[dN]DECELCVNVACTGC[dL]-OH; disulfide 4-12, 7-15)
increase in GI (small intestinal) transit compared to vehicle controls ([1]; SP-333 0.05 mg/kg single oral gavage): 5.6% | increase in GI (small intestinal) transit compared to vehicle controls ([1]; SP-333 0.5 mg/kg single oral gavage): 13% | increase in GI (small intestinal) transit compared to vehicle controls ([1]; SP-333 5 mg/kg single oral gavage): 23% | GI transit in morphine-treated rats ([2]; morphine 2.5 mg/kg IP + SP-333 0.5 mg/kg oral): 27% | GI transit in morphine-treated rats ([2]; morphine 2.5 mg/kg IP + SP-333 2.5 mg/kg oral): 37% | GI transit in morphine-treated rats ([2]; morphine 2.5 mg/kg IP + SP-333 5 mg/kg oral): 46% | GI transit in morphine-treated rats ([2]; morphine 2.5 mg/kg IP + SP-333 50 mg/kg oral): 48% | SP-333 dose sufficient to relieve the effect of morphine on GI transit ([2]; morphine 2.5 mg/kg IP, SP-333 oral): 5 mg/kg | delay in GI transit caused by morphine ([2]; orally administered SP-333): completely restored the delay in GI transit | GI transit in methadone-treated rats ([3]; methadone 2.5 mg/kg IP + SP-333 0.5 mg/kg oral): 40% | GI transit in methadone-treated rats ([3]; methadone 2.5 mg/kg IP + SP-333 2.5 mg/kg oral): 39% | GI transit in methadone-treated rats ([3]; methadone 2.5 mg/kg IP + SP-333 5 mg/kg oral): 44% | GI transit in methadone-treated rats ([3]; methadone 2.5 mg/kg IP + SP-333 50 mg/kg oral): 52% | SP-333 dose sufficient to relieve the effect of methadone on GI transit ([3]; methadone 2.5 mg/kg IP, SP-333 oral): 5 mg/kg | delay in GI transit caused by methadone ([3]; orally administered SP-333): completely restored the delay in GI transit | GI transit delay after repeated methadone dosing ([4]; repeated daily IP methadone (5 then 2.5 mg/kg) + SP-333 2.5 and 5 mg/kg oral): normalized GI transit; also recorded: relieved the GI-transit delay; also recorded: statistically significant improvement in GI transit delay | fecal pellet count compared to the methadone dosed group without SP-333 ([5]; methadone 5 mg/kg IP + SP-333 2.5 mg/kg oral, once daily 7 days): threefold increase; also recorded: significantly relieved methadone-induced constipation | fecal output / average number of pellets ([5]; methadone 5 mg/kg IP + SP-333 2.5 and 5 mg/kg oral, once daily 7 days): partially restored fecal output; also recorded: higher compared to the methadone dosed group | increase in Isc (chloride currents) (rat jejunum; SP-333 0.01-10 μM apical): concentration-dependent increase in Isc approaching saturation at 10 μM | increase in Isc (chloride currents) (T84 cells; SP-333 0.01-10 μM apical): concentration-dependent increase in Isc approaching saturation at 10 μM

O=C(O)c1ccc(/C=C2\SC(=S)N(c3cccc(C(F)(F)F)c3)C2=O)cc1 [CFTRinh172]
inhibition of SP-333-stimulated Isc (rat jejunum): less compared to that detected in T84 cells | suppression in SP-333-stimulated Isc (T84 cells; 10 μM CFTRinh172, compared with 1 μM SP-333 alone): 80%

CN1CC[C@]23c4c5ccc(O)c4O[C@H]2[C@@H](O)C=C[C@H]3[C@H]1C5 [morphine]
GI transit slowed by, compared to vehicle controls ([6]; morphine 2.5 mg/kg IP single dose): 56% | effect of morphine on GI transit ([6]; morphine IP 0.25, 1.0 and 2.5 mg/kg): significantly reduced GI transit | effect of morphine pre-treatment on SP-333-stimulated Isc (rat jejunum; [7]): negligible effect; also recorded: not adversely affected | effect of morphine pre-treatment on SP-333-stimulated Isc (T84 cells; [7]): negligible effect; also recorded: not adversely affected

CCC(=O)C(CC(C)N(C)C)(c1ccccc1)c1ccccc1 (stereo not shown) [methadone]
methadone dose sufficient to significantly reduce GI transit ([6]; IP): 2.5 mg/kg | GI transit delay vs corresponding vehicle controls ([6]; methadone 2.5 mg/kg IP): 49% | effect of methadone on GI transit ([6]; methadone 0.25, 2.5 and 5 mg/kg IP): significantly reduced GI transit; also recorded: statistically significant reduction in GI transit | GI transit after repeated methadone dosing (words) [4]: significant delay in GI transit | GI transit after repeated methadone dosing (words) ([4]; listed as Methadone): significant reduction in GI transit | effect of methadone on fecal output ([5]; daily IP methadone 2.5, 5 and 7.5 mg/kg): drastically reduced daily fecal output; also recorded: statistically significant reduction in fecal output | effect of methadone pre-treatment on SP-333-stimulated Isc (rat jejunum; [8]): no effect; also recorded: not adversely affected | effect of methadone pre-treatment on SP-333-stimulated Isc (T84 cells; [8]): no effect; also recorded: not adversely affected

[Cl][Cd][Cl] [CdCl2]
inhibition of SP-333-stimulated Isc (rat jejunum): minimal effect | decrease in SP-333-stimulated Isc (T84 cells; CdCl2 300 μM or mPKI 3.2 μM, 1 μM SP-333): No appreciable decrease; also recorded: minimal effect

COC(=O)[C@@]1(OC)C[C@H]2O[C@]1(C)n1c3ccccc3c3c4c(c5c6ccccc6n2c5c31)C(=O)N(C)C4 [PKG-II inhibitor]
suppression of relative SP-333-stimulated Isc (T84 cells; PKG-II inhibitor 4 μM, 1 μM SP-333): approximately 35%

From patent publication US20160220630A1, “AGONISTS OF GUANYLATE CYCLASE USEFUL FOR THE TREATMENT OF OPIOID INDUCED DYSFUNCTIONS” (priority 2013, published 2016)
